One data set addresses T1, Human PPARα (Homo sapiens, UniProt Q07869).
T1 construct: expressed in transfected cells; host or cells: 293-T cells
T1 sequence (Q07869 239-466 limits assumed): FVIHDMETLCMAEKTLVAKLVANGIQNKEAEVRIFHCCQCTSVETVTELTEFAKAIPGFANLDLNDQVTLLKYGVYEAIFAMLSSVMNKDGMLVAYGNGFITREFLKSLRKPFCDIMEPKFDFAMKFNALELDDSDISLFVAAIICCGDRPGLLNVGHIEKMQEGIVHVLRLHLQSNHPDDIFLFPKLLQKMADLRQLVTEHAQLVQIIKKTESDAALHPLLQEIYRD
The experiment in a line: Activity assay on activating human PPARα (GAL4 chimeric receptor luciferase reporter, transient transfection in 293-T cells). The settings on record: for EC50: activation of PPARα; for Photon number (×10^4) / Increased multiple vs control: compound 10 μM; for Photon number (×10^4): luciferase measured 24 h after administration, control 2.1; for Increased multiple vs control: vs 0.2‰ DMSO blank control. It counts as cell-based. The protocol: (§1) The compounds were screened with respect to their functional effect of instantaneous transfection in 293-T cells, so that their capabilities of activating PPAR subtypes were determined. A chimeric receptor system as established in advance was used to compare the influence of receptor subtypes on the transcription activity of same target gene, with Rluc as an internal control to reduce the endogenous influence. Human PPARα and PPARγ ligand-binding domains were fused respectively with yeast transcription factor GAL4 DNA-binding domains, and then linked to expression vector pM of mammal, to thereby construct two plasmids pM-hPPARα/GAL4 and pM-PPARγ/GAL4. GAL4 DNA-binding area was linked to pB4-tk-luc, to thereby construct pB4-RES-tk-luc (a firefly luciferase reporter gene comprising GAL4 DNA-binding site). pRL-CMV-Rluc was used as an internal control to normalize transfection efficiency and endogenous influence.
(§2) 293-T cells were incubated in a 48-well plate at a cell density of 2-4×10^4/well, using a phenol red-free and antibiotic-free 1640 medium containing 10% defatted fetal calf serum (FCS). After culturing for 48 h, the medium was replaced with a phenol red-free and antibiotic-free 1640 medium containing 5% defatted FCS, and then three plasmids pM-hPPAR/GAL4, pB4-RES-tk-luc and pRL-CMV-Rluc pertaining to two subtypes were respectively co-transfected into the 293-T cells. The strength of luciferase was measured at the time of 24 h after administration, with 0.2‰ DMSO as a blank control.

A further data set addresses T2, Human PPARγ (Homo sapiens, UniProt P37231).
T2 construct: expressed in transfected cells; host or cells: 293-T cells
T2 sequence (P37231 238-503 limits assumed): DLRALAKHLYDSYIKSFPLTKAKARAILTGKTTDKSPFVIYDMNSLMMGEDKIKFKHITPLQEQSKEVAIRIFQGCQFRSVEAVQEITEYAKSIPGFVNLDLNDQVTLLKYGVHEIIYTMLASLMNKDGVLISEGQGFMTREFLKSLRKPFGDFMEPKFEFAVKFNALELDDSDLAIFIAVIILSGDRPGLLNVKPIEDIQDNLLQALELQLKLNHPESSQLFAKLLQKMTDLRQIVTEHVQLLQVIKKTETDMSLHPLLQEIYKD
The experiment in a line: Activity assay on activating human PPARγ (GAL4 chimeric receptor luciferase reporter, transient transfection in 293-T cells). It counts as cell-based. The settings on record: for EC50: activation of PPARγ; for Photon number (×10^4) / Increased multiple vs control: compound 10 μM; for Photon number (×10^4): luciferase measured 24 h after administration, control 1.4; for Increased multiple vs control: vs 0.2‰ DMSO blank control. How it is done: as §1, §2
(In general: In a reporter assay the amount or activity of a reporter protein is the signal.)

Broadly, the melting point is the temperature of the solid-liquid transition. The term EC50 denotes the concentration needed to bring the measured effect to its halfway point. A lower EC50 goes with higher potency in that assay.

With `Cc1oc(-c2ccccc2)nc1CCOc1ccc(C[C@H](NC(=O)C=Cc2ccc(F)cc2)C(=O)O)cc1` [Example 3, (2S)-2-(3-(4-fluorophenyl)acryloylamino)-3-{4-[2-(5-methyl-2-phenyl-1,3-oxazol-4-yl)-ethoxy]-phenyl}-propanoic acid], the melting point lay within 188 to 190 °C.
`Cc1oc(-c2ccccc2)nc1CCOc1ccc(C[C@H](NC(=O)C=Cc2ccc(F)cc2F)C(=O)O)cc1Br` [Example 12, (2S)-3-{3-bromo-4-[2-(5-methyl-2-phenyl-1,3-oxazol-4-yl)-ethoxy]-phenyl}-2-(3-(2,4-difluorophenyl)-acryloylamino)-propanoic acid]: the melting point lay in the range of 221 to 223 °C.
As for `Cc1oc(-c2ccccc2)nc1CCOc1ccc(C[C@H](NC(=O)C=Cc2ccc(F)cc2F)C(=O)O)cc1` [Example 8, (2S)-2-[3-(2,4-difluorophenyl)-acryloylamino]-3-{4-[2-(5-methyl-2-phenyl-1,3-oxazol-4-yl)-ethoxy]-phenyl}-propanoic acid], on Human PPARα, the EC50 was 4970 nM, the “Photon number (×10^4)” value was 18.8 ×10^4 and the “Increased multiple vs control” value worked out at 8.9. At Human PPARγ, the midpoint of the response, the EC50, lay at 1160 nM; the “Photon number (×10^4)” value was 27.6 ×10^4; the “Increased multiple vs control” value is 19.7.
`Cc1oc(-c2ccccc2)nc1CCOc1ccc(C[C@H](NC(=O)C=Cc2ccco2)C(=O)O)cc1` [Example 9, (2S)-2-(3-(furan-2-yl)-acryloylamino)-3-{4-[2-(5-methyl-2-phenyl-1,3-oxazol-4-yl)-ethoxy]-phenyl}-propanoic acid]: the melting point lay in the range of 199 to 201 °C. Further, at Human PPARα, a half-maximal effect (EC50) was put at 770 nM, the “Photon number (×10^4)” value was 9.8 ×10^4 and the “Increased multiple vs control” value came out at 4.7. Also, at Human PPARγ, a half-maximal effect (EC50) was put at 74 nM, the “Photon number (×10^4)” value is 23.7 ×10^4 and the “Increased multiple vs control” value is recorded as 16.9.
Consider `Cc1oc(-c2ccccc2)nc1CCOc1ccc(C[C@H](NC(=O)C=Cc2ccc(F)c(F)c2)C(=O)O)cc1` [Example 7, (2S)-2-[3-(3,4-difluorophenyl)acryloylamino]-3-{4-[2-(5-methyl-2-phenyl-1,3-oxazol-4-yl)-ethoxy]-phenyl}-propanoic acid], for which, at Human PPARα, the “Photon number (×10^4)” value is 8.6 ×10^4 and the “Increased multiple vs control” value worked out at 4.1. For the same molecule, at Human PPARγ, the “Photon number (×10^4)” value is 29.0 ×10^4 and the “Increased multiple vs control” value turned out to be 20.7.
As to `Cc1ccc(C=CC(=O)N[C@@H](Cc2ccc(OCCc3nc(-c4ccccc4)oc3C)c(Br)c2)C(=O)O)cc1` [Example 10, (2S)-3-{3-bromo-4-[2-(5-methyl-2-phenyl-1,3-oxazol-4-yl)-ethoxy]-phenyl}-2-(3-p-tolylacryloylamino)-propanoic acid], at Human PPARγ, the “Photon number (×10^4)” value was 24.1 ×10^4 and the “Increased multiple vs control” value worked out at 17.2.
